One assay relates to Streptococcus. Description: GAS UMAA2166 growth inhibition – luminescence, BacTiterGlo, counter-screen for streptokinase expression inhibitor project, dose response (AID 1915).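 Further: potency for reduction of bacterial viability or growth.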 The format is functional, organism-based.
The target of the next assay is T1, Exodeoxyribonuclease V (Escherichia coli (strain K12), UniProt P04993+P07648+P08394).
T1 sequence (P04993 whole entry): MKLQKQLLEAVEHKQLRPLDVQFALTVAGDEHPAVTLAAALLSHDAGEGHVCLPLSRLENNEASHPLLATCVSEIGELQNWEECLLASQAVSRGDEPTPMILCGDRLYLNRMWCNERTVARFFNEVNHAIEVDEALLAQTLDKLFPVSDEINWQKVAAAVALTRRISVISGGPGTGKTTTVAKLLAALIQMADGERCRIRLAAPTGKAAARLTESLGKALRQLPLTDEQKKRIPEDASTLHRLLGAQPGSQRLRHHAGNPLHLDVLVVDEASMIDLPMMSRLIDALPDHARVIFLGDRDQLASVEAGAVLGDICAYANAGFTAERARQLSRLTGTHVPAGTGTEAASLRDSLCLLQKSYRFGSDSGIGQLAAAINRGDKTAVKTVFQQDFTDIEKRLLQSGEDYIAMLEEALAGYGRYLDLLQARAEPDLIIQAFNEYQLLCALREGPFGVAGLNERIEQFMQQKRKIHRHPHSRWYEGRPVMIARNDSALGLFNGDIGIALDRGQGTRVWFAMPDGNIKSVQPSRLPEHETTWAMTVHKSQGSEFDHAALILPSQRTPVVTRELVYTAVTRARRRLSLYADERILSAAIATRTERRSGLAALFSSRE
T1 sequence (P07648 whole entry): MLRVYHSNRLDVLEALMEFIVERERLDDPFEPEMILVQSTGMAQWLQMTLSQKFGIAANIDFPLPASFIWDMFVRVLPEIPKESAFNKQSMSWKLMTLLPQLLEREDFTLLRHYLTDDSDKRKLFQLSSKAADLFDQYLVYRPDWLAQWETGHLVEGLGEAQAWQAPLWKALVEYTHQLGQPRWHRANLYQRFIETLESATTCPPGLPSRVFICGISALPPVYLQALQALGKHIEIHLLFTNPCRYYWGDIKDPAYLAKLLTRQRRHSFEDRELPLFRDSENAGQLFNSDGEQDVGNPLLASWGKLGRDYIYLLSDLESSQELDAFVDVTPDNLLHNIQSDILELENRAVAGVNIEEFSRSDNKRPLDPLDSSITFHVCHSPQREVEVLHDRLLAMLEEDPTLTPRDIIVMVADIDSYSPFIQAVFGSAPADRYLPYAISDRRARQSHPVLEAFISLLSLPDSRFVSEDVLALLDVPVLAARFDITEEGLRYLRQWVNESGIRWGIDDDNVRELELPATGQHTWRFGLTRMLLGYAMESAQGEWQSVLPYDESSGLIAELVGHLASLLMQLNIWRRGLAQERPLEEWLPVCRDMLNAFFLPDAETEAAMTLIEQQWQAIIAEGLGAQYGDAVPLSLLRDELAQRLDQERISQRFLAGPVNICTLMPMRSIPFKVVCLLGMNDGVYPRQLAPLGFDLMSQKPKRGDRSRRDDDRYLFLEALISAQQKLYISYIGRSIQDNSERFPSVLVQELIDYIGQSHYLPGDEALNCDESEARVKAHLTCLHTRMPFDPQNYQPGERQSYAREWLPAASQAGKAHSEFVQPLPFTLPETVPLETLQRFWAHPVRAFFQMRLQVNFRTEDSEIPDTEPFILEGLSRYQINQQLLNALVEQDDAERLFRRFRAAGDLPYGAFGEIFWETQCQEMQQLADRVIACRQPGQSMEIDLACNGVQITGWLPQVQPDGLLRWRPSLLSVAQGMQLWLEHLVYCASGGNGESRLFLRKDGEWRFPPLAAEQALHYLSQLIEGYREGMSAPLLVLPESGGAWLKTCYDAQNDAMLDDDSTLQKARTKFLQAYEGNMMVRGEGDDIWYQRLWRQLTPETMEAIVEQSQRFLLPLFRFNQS
T1 sequence (P08394 whole entry): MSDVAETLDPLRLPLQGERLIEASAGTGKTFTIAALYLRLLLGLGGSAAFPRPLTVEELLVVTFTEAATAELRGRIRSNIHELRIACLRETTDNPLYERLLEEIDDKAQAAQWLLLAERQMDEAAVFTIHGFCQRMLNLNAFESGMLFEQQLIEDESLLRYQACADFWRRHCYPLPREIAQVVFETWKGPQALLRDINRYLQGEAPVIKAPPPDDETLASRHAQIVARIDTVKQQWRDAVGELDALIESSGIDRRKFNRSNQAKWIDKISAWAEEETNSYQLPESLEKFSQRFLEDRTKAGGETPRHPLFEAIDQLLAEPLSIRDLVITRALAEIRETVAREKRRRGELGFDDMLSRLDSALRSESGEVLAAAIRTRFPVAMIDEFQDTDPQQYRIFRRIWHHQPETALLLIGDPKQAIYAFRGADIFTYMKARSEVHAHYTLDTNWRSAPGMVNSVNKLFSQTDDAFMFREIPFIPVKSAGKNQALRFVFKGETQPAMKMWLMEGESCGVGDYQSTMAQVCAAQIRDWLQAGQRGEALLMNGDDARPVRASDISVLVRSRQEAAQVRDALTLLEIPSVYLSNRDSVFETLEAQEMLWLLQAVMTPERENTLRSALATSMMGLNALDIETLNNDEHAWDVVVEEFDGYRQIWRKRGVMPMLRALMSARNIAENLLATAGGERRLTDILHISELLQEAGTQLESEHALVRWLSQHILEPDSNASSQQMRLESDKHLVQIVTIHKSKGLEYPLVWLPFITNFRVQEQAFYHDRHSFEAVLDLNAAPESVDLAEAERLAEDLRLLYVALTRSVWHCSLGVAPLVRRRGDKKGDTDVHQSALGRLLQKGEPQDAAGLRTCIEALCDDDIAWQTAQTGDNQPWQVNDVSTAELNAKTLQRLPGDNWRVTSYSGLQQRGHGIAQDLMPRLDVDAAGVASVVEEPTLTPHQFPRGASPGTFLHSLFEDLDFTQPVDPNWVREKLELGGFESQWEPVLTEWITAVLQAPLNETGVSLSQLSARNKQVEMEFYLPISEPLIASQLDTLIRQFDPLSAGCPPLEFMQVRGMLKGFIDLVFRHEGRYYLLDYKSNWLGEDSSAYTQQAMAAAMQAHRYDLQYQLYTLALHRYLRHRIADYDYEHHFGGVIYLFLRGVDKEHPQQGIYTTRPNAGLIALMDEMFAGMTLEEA
Description: RecBCD inhibition via phage-restricted bacterial growth – absorbance, V66 E. coli, mutant T4 phage, counter-screen for AddAB inhibitor project, dose response (AID 492957). The format is functional, cell-based, Escherichia coli str. K-12 substr. MG1655.

The test system of another assay is HEK293. Nature of the assay: EBV LMP1 TES2 canonical NF-kB signalling blockers – cell-based, HEK293, luciferase, cherry-pick, dose response (AID 588343). The format is functional. As to conditions: Homo sapiens.

Active and inactive are the calls of the source.

For the compound `CCCCC(=O)NC(c1ccco1)c1cc(Cl)c2cccnc2c1O` (configuration not stated), in the assay with Streptococcus, the EC50 is 8.22 µM (active). The IC50 at Exodeoxyribonuclease V was > 119 µM (inactive).

For the compound `CCCCC(=O)NC(c1ccc(Cl)cc1)c1ccc2cccnc2c1O` (configuration not stated), the AC50 in the assay on HEK293 was 4.59 µM (active). The IC50 on Exodeoxyribonuclease V was > 119 µM (inactive).

In the case of `O=C(N/N=C/c1ccccc1O)/C(O)=C\C1=NC2(CCCC2)Cc2ccccc21`, the EC50 in the assay with Streptococcus was 11.2 µM (active). Further, in the assay on HEK293, the AC50 is 33.4 µM (active). Further, the IC50 on Exodeoxyribonuclease V was > 119 µM (inactive).

The values are drawn from ChEMBL document CHEMBL1201862, “PubChem BioAssay data set” (2004).
